Laboratory results taken from patent US20090298936A1, “METHOD FOR ENERGIZING HUMAN BEINGS” (SYMRISE GmbH & Co. KG, priority 2008, published 2009).
Where “and” joins values, the source holds several entries; their conditions need not be identical. Equal values may be shown once.

Test system: healthy human subjects (panelists)
Assay: Sniff test with heartbeat measurement (finger clip Heart Rhythm Monitor, Freeze-Framer 2.0) on human panelists
Format: in vivo
Conditions: for energizing effect compared with Amarocite and the mixtures: solution in mineral oil
From the text: In order to introduce compounds of group (a) or a sensory complex as described above into the nasal cavity that will occur using many types of products containing the sensory complex the following method of human testing and data collection was developed, standardized and used to collect and analyze data to substantiate the energizing effects of the sensory complex materials in group (a).
Data collection and analysis of each panelists's heart rate was made using a finger clip attachment for the Heart Rhythm Monitor using Freeze-Framer® 2.0 software from HeartMath®, 14700 West Park Avenue, Boulder Creek, Calif.
The test is divided into 3 parts: • 1) the pre-sniff-test period: places the panelist in a neutral state (15 min), • 2) the sniff-test period (5 min), • 3) the post-sniff-test period (10 min). Typically during each test session, three fragrances (single compound or mixture of compounds) are presented to the panelist, so one test lasts for one hour.

Structure (SMILES): COC(OC)C(C)(C)CC=C(C)C [Amarocite ®, 1,1-dimethoxy-2,2,5-trimethyl-4-hexene]
- Heartbeat (bpm) After (individual panelists A-G, after inhalation, 1 wt.-% solution in mineral oil): 77 bpm and 81 bpm and 70 bpm and 78 bpm and 72 bpm and 71 bpm and 90 bpm
- Heartbeat (bpm) Difference (individual panelists A-G, after minus before, 1 wt.-% solution in mineral oil): +9 bpm and +25 bpm and +6 bpm (2×) and +10 bpm and +12 bpm (2×)
- Heartbeat (bpm) Before (individual panelists A-G, before inhalation (baseline), 1 wt.-% solution in mineral oil): 68 bpm (2×) and 56 bpm and 64 bpm and 60 bpm and 59 bpm and 84 bpm
- Heartbeat (bpm) After, Mean (mean of panelists A-G, after inhalation, 1 wt.-% solution in mineral oil): 77 bpm
- Heartbeat (bpm) Difference, Mean (mean of panelists A-G, after minus before, 1 wt.-% solution in mineral oil): +11.4 bpm
- Heartbeat (bpm) Before, Mean (mean of panelists A-G, before inhalation (baseline), 1 wt.-% solution in mineral oil): 65.6 bpm
- average heart rate increase (panelists, administered according to the protocol): 17.3%

Structure (SMILES): CCCCCC1C(=O)CCC1CC(=O)OC (stereo not drawn) [methyl dihydro jasmonate]
- energizing effect compared with Amarocite and the mixtures (2.0 wt.-% alone): Stronger energizing effects

Structure (SMILES): CC(C)CCCC(C)CCO (stereo not drawn) [tetrahydrogeraniol]
- energizing effect compared with Amarocite and the mixtures (0.8 wt.-% alone): Stronger energizing effects
